Our source for the TGI and GI50 values is PubChem BioAssay (NCI).

Among the test systems are MDA-N; SK-MEL-2 melanoma; MDA-MB-231 breast; PC-3 prostate; T-47D breast; TK-10 renal; RPMI-8226 leukemia; A498 renal; OVCAR-3 ovarian; NCI-H460 lung; HOP-62 NSCLC; HCT-116 colon; NCI-H226 lung; KM12 colon; OVCAR-8 ovarian.
What all share (experiment): NCI-60 cell line screen, 48 h

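Tested at 5 concentrations; 48 h exposure; 96-well plates; endpoints linearly interpolated, else capped at highest concentration. GI50 is the concentration that inhibits growth by half. TGI: total growth inhibition.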

Turning to `CCCC(=O)N(C)N=Nc1ccc(C(=O)OCC)cc1`, the TGI with MDA-N, in the experiment on SK-MEL-2 melanoma, in the experiment on MDA-MB-231 breast, with PC-3 prostate, in the experiment on T-47D breast and with TK-10 renal was greater than 100 µM throughout. The TGI in the experiment with RPMI-8226 leukemia, in the experiment on A498 renal, in the experiment with OVCAR-3 ovarian, in the experiment on NCI-H460 lung, in the experiment with HOP-62 NSCLC and with HCT-116 colon was greater than 100 µM in each case. The TGI in the experiment on NCI-H226 lung, in the experiment with KM12 colon and in the experiment on OVCAR-8 ovarian was greater than 100 µM in each case.

`COc1ccc(OC)c(N=Cc2cc(OC)c(OC)c(OC)c2)c1`: the TGI with MDA-N, with SK-MEL-2 melanoma, in the experiment on MDA-MB-231 breast, in the experiment on PC-3 prostate, in the experiment with T-47D breast and in the experiment with TK-10 renal was greater than 100 µM in each case. Besides, the TGI with RPMI-8226 leukemia is greater than 76.6 µM; with A498 renal, greater than 100 µM; in the experiment with OVCAR-3 ovarian, greater than 40.3 µM; in the experiment with NCI-H460 lung it was greater than 100 µM; in the experiment on HOP-62 NSCLC, greater than 100 µM; in the experiment on HCT-116 colon, greater than 100 µM. In addition, the TGI with NCI-H226 lung, in the experiment on KM12 colon and in the experiment on OVCAR-8 ovarian was greater than 100 µM each time.

As for `CC(O)CC(=O)CO[C@H]1[C@H](O)[C@@H](O)[C@@H](O)[C@@H]2NC(=O)c3c(cc4c(c3O)OCO4)[C@H]21` (some centres not stated), the TGI in the experiment with MDA-N stood at 0.446 µM; in the experiment on SK-MEL-2 melanoma it was 0.261 µM; in the experiment with MDA-MB-231 breast, 0.545 µM; in the experiment on PC-3 prostate, 0.303 µM; with T-47D breast, 0.109 µM; in the experiment on TK-10 renal it was 0.238 µM. Further, the TGI in the experiment on RPMI-8226 leukemia was found to be 0.147 µM; in the experiment with A498 renal, 0.072 µM; in the experiment on OVCAR-3 ovarian, 0.609 µM; with NCI-H460 lung, 0.188 µM; in the experiment on HOP-62 NSCLC, 0.319 µM; with HCT-116 colon, 0.345 µM. In addition, the values for the TGI in the experiment with NCI-H226 lung, in the experiment with KM12 colon and with OVCAR-8 ovarian were 1.49 µM, 0.202 µM and 1.53 µM, respectively.

Turning to `COc1ccc(C2CC(c3ccc(NS(=O)(=O)c4cc([N+](=O)[O-])ccc4C)cc3)=NN2S(=O)(=O)c2cc([N+](=O)[O-])ccc2C)cc1` (configuration not stated), the TGI in the experiment with MDA-N, with SK-MEL-2 melanoma, in the experiment with MDA-MB-231 breast, in the experiment with PC-3 prostate, in the experiment with T-47D breast and in the experiment on TK-10 renal was greater than 100 µM throughout. The TGI in the experiment with RPMI-8226 leukemia, in the experiment with A498 renal, in the experiment on OVCAR-3 ovarian, in the experiment on NCI-H460 lung, in the experiment on HOP-62 NSCLC and in the experiment on HCT-116 colon was greater than 100 µM each time. The TGI in the experiment with NCI-H226 lung, in the experiment on KM12 colon and with OVCAR-8 ovarian was greater than 100 µM throughout.

In the case of `C[C@@H](Oc1ccc(Oc2cnc3ccc(Cl)cc3n2)cc1)C(=O)O`, the TGI in the experiment with MDA-N, in the experiment on SK-MEL-2 melanoma, in the experiment with MDA-MB-231 breast, with PC-3 prostate, with T-47D breast and in the experiment with TK-10 renal was greater than 100 µM each time. In addition, the TGI in the experiment on RPMI-8226 leukemia, with A498 renal, in the experiment on OVCAR-3 ovarian, in the experiment with NCI-H460 lung, in the experiment on HOP-62 NSCLC and with HCT-116 colon was greater than 100 µM throughout. For the same molecule, the TGI in the experiment with NCI-H226 lung, in the experiment on KM12 colon and in the experiment on OVCAR-8 ovarian was greater than 100 µM each time. For the same molecule, the GI50 with HOP-62 NSCLC is greater than 85.3 µM; in the experiment with NCI-H226 lung, 67.1 µM.

Regarding `O=C(/C=C\c1ccsc1)c1ccccc1`, the TGI with MDA-N worked out at 25.8 µM; in the experiment on SK-MEL-2 melanoma it was 34.4 µM; in the experiment with MDA-MB-231 breast, 18.5 µM; with PC-3 prostate, 24.1 µM; with T-47D breast it was 19.7 µM; with TK-10 renal, 29.3 µM. The TGI in the experiment on RPMI-8226 leukemia came to 7.32 µM; in the experiment with A498 renal, 15.5 µM; in the experiment with OVCAR-3 ovarian it was 27.9 µM; in the experiment with NCI-H460 lung, 25.2 µM; in the experiment with HOP-62 NSCLC, 30.7 µM; with HCT-116 colon, 14.5 µM. Further, the TGI with NCI-H226 lung amounted to 34.1 µM; in the experiment with KM12 colon it was 8.5 µM; with OVCAR-8 ovarian, 27.2 µM.

As to `Cc1ccc(C(=O)O)c(/C=C2\Cc3cc(C)cc(C)c3C2=O)c1`, the TGI in the experiment on MDA-N, with SK-MEL-2 melanoma, with MDA-MB-231 breast, in the experiment with PC-3 prostate, with T-47D breast and in the experiment on TK-10 renal was greater than 100 µM each time. Further, the TGI with RPMI-8226 leukemia, in the experiment with A498 renal, in the experiment on OVCAR-3 ovarian, in the experiment with NCI-H460 lung, in the experiment with HOP-62 NSCLC and in the experiment with HCT-116 colon was greater than 100 µM each time. For the same molecule, the TGI in the experiment on NCI-H226 lung, in the experiment on KM12 colon and in the experiment on OVCAR-8 ovarian was greater than 100 µM in each case.

`CC1=NNC(=O)C1C1CC(c2c[nH]c3ccccc23)=NN(c2ccccc2)C1=O` (configuration not stated): the TGI in the experiment on MDA-N, in the experiment on SK-MEL-2 melanoma, in the experiment with MDA-MB-231 breast, with PC-3 prostate, in the experiment with T-47D breast and with TK-10 renal was greater than 100 µM throughout. For the same molecule, the TGI in the experiment on RPMI-8226 leukemia, in the experiment with A498 renal, in the experiment with OVCAR-3 ovarian, in the experiment on NCI-H460 lung, in the experiment with HOP-62 NSCLC and in the experiment with HCT-116 colon was greater than 100 µM each time. In addition, the TGI in the experiment with NCI-H226 lung, in the experiment with KM12 colon and in the experiment on OVCAR-8 ovarian was greater than 100 µM throughout.
